Reference: EPA's ToxValDB 9.5 (doi:10.2903/j.efsa.2020.6151)

How the values were obtained:
[1] = tested on: Rattus norvegicus
[2] = tested on: Folsomia candida; settings: chronic/long-term; duration: 28 days; reproduction
[3] = tested on: Pimephales promelas; settings: chronic/long-term; duration: 33 days; other
[4] = tested on: Daphnia magna; settings: chronic/long-term; duration: 21 days; other
[5] = tested on: Bibionidae; settings: chronic/long-term; duration: 28 days; seedling emergence
[6] = tested on: Colinus virginianus; settings: for LD50: acute, oral, mortality
[7] = tested on: Apis mellifera; settings: acute, mortality
[8] = tested on: Typhlodromus pyri; assay: LR50; higher = less toxic; settings: not reported; mortality

## C#CCOC(=O)[C@@H](C)Oc1ccc(Oc2ncc(Cl)cc2F)cc1 [Clodinafop-propargyl]
[1]; acute, oral, mortality
  LD50: > 1390 mg/kg
[1]; chronic, duration: 2 years, M, histopathology: neoplastic
  NOAEL: 0.03 mg/kg-day
[1]; developmental, development
  NOAEL: 5 mg/kg-day
[1]; reproduction developmental, body weight
  NOAEL: 3.4 mg/kg-day
[1]; subchronic, duration: 90 days, organ weight
  NOAEL: 0.92 mg/kg-day
[2]
  NOEC: 1.6 mg/kg
[3]
  NOEC: 0.024 mg/L
[4]
  NOEC: 0.23 mg/L
[5]
  NOEC: 1.2 mg/L
[6]; duration: 5 days, diet
  LD50: > 1040 mg/kg-day
[6]
  LD50: 1460 mg/kg
[6]; reproduction developmental
  NOEC: 48.9 mg/kg-day
[7]; dermal
  LD50: > 100 µg/piece
[7]; oral, unspecified
  LD50: > 104 µg/piece
[8]
  LR50: > 90 g/ha
